Data set [1] in a line: neuroprotective and nephroprotective properties. As to the method: (§1) Dibromoalkanes (60, 61) were heated with (triphenyl)phosphine in benzene at 80° C., and the obtained bromoalkyl(triphenyl)phosphonium bromides (62, 63) were reacted with fluorescein in the presence of sodium carbonate. As a result, bromides of {4-[2-(6-hydroxy-3-oxo-3H-xanthen-9-yl)benzoyloxy]butyl}(triphenyl)phosphonium (64) and {10-[2-(6-hydroxy-3-oxo-3H-xanthen-9-yl)benzoyloxy]decyl}(triphenyl)phosphonium (65).

Data set [2] can be described thus: fluorescent uncoupler activity. On the procedure:
as §1

Another data set relates to isolated mitochondria. As to conditions: cited from earlier work.
For data set [3], the system named is isolated mitochondria or live cultures of human cells. As to conditions: cited from earlier work.
The conditions of data set [4]: relative to the antioxidant concentrations; cited from earlier work.
In data set [5] the test system is mitochondrial membrane potential. Put plainly: mitochondrial uncoupling (protonophore), decrease of mitochondrial membrane potential. As to conditions: causes decrease in mitochondrial membrane potential and reduction of ROS production by mitochondria.

For “{10-[2-(6-hydroxy-3-oxo-3H-xanthen-9-yl)benzoyloxy]decyl}(triphenyl)phosphonium [Compound 65]”, the “neuroprotective and nephroprotective properties” value in data set [1] was “neuroprotective and nephroprotective properties”. In addition, the uncoupler activity entry in data set [2] was “fluorescent uncouplers”. Turning to `COc1ccc2c(CC(=O)OCCCCCCCCCC3=CC(=O)C(C)=C(C)C3=O)c3[n+](cc2c1OC)CCc1cc2c(cc1-3)OCO2` [SkQBerb, 21-(2-{[9-(4,5-dimethyl-3,6-dioxocyclohexa-1,4-dien-1-yl)nonyl]oxy}-2-oxoethyl)-16,17-dimethoxy-5,7-dioxa-13λ^5-azapentacyclo[11.8.0.0^21.0.0^4.8.0^15.20]henicosa-1(21),2,4(8),9,13,15(20),16,18-octaen-13-ylium], the “inhibition of lipid peroxidation” value in the data set with isolated mitochondria is “inhibit lipid peroxidation in isolated mitochondria in nanomolar concentrations”. In data set [3], the “accumulation in isolated mitochondria or live human cells” value is “accumulate in isolated mitochondria or live cultures of human cells”. For the same compound, the prooxidant effect result in data set [4] was “manifested at significantly higher concentrations”. Consider `CC/N=c1/cc2oc3cc(NCC)c(C)cc3c(-c3ccccc3C(=O)OCCCCCCCCCCC3=CC(=O)C(C)=C(C)C3=O)c-2cc1C.Cl` [SkQR1], for which the “mitochondrial uncoupling (protonophore) activity” value (from here on “mitochondrial uncoupling”) in data set [5] is “soft cationic mitochondrial uncouplers (protonophores)”. In the case of `CCCCCCCCCCOC(=O)c1ccccc1-c1c2cc(C)/c(=N/CC)cc-2oc2cc(NCC)c(C)cc12` [Compound 28, decyl 2-[(3E)-6-(ethylamino)-3-(ethylimino)-2,7-dimethyl-3H-xanthen-9-yl]benzoate], in data set [5], the “mitochondrial uncoupling” value was “soft cationic mitochondrial uncouplers (protonophores)”.

Consider `CCCCCCCCCCCCOC(=O)c1ccccc1-c1c2cc(C)/c(=N/CC)cc-2oc2cc(NCC)c(C)cc12` [Compound 29, dodecyl 2-[(3E)-6-(ethylamino)-3-(ethylimino)-2,7-dimethyl-3H-xanthen-9-yl]benzoate], for which, in data set [5], the “mitochondrial uncoupling” value is reported as “soft cationic mitochondrial uncouplers (protonophores)”. Take `COc1cc2c(cc1OC)-c1c(CC(=O)OCCCCCCCCCC3=CC(=O)C(C)=C(C)C3=O)c3ccc(OC)c(OC)c3c[n+]1CC2` [SkQPalm, 13-(2-{[9-(4,5-dimethyl-3,6-dioxocyclohexa-1,4-dien-1-yl)nonyl]oxy}-2-oxoethyl)-3,4,10,11-tetramethoxy-7,8-dihydro-6λ^5-azatetraphen-6-ylium]: the “inhibition of lipid peroxidation” value in the data set on isolated mitochondria was “inhibit lipid peroxidation in isolated mitochondria in nanomolar concentrations”. The “accumulation in isolated mitochondria or live human cells” value in data set [3] is given as “accumulate in isolated mitochondria or live cultures of human cells”. Besides, in data set [4], the prooxidant effect entry is recorded as “manifested at significantly higher concentrations”. In the case of “{4-[2-(6-hydroxy-3-oxo-3H-xanthen-9-yl)benzoyloxy]butyl}(triphenyl)phosphonium [Compound 64]”, in data set [1], the “neuroprotective and nephroprotective properties” value was “neuroprotective and nephroprotective properties”. For the same compound, the uncoupler activity entry in data set [2] is recorded as “fluorescent uncouplers”.
